Entries after “also recorded” stand apart in the source; their conditions may differ. Residues, ends and D or L forms follow the SMILES beside them. *: point of attachment. Cbz = O=C(OCc1ccccc1)*; CH2F = FC*
Tests used:
ASCs [1] = assay: ASC proliferation with Fas-L and inhibitors for 4 days, cell counts; format: cell-based, human
From the text: (§1) The dual effect of Fas-L on the apoptosis and proliferation of ASCs, can be mediated solely by canonical Fas-L signaling or through two distinct pathways. To distinguish between these possibilities, ASCs were either left untreated, treated with Fas-L only or treated simultaneously with Fas-L and with the pan-caspase inhibitor […], for 4 days. Importantly, to better evaluate the apoptotic cue of Fas-L, a different Fas-L derivative (mega-Fas-L), which induces high rates of apoptosis in passage 3 ASCs, was used in the current experiments. Sub-G1 proportions and cell numbers were determined by PI cell-cycle flow cytometry analysis and standard cell counts respectively. The experiment was repeated 3 times using cells from 3 independent patients.
Accordingly, cultured Passage 2-4 ASCs were treated with a combination of mega Fas-L, Z-VAD-fmk, LY294002 (PI3K inhibitor), AZD6244 (ERK-1/2 inhibitor) and SP600125 (JNK inhibitor) for 4 days.
After 4 days, cells were removed from plates by trypsin and cells were counted using a standard cell counter. The experiment was repeated 3 times using cells from 3 independent patients.
To test the effects of inhibitors on proliferation of mature ASCs (P2 and P3 ASCs), cells were seeded into 24-well plates (10.000 cells/well) and allowed to attach and grow for 24 h. Then, medium was exchanged for fresh normal growth medium or growth medium supplemented with Fas-L or with Fas-L and one of the inhibitors. Cells were then cultured for 4 days.
At the end of the incubation period, adherent cells were trypsinized, collected and counted with a TC10 Automated Cell Counter (Bio-rad).

ASCs [2] = assay: ASC apoptosis with Fas-L and inhibitors for 4 days, sub-G1 by PI cell-cycle flow cytometry; format: cell-based, human; settings: Z-VAD-fmk added to mega-Fas-L
From the text: as §1
Cells were harvested and fixed with 70% ethanol/PBS, treated with RNaseA 0.4 mg/ml (Sigma) and stained with propidium iodide (PI) 0.1 mg/ml (Sigma).
All labeled cells were analyzed using a FACS Canto II flow cytometer (Becton Dickinson, San Jose, Calif., USA). At least 10.000 events were recorded. Data analysis was performed using the FlowJo software (Tree Star, Ashland, Oreg., USA).

Compound | cell yield (ASCs [1]; Fas-L and Z-VAD-fmk together, 4 days, vs untreated) | Fas-L-induced ASC proliferation (ASCs [1]; Z-VAD-fmk added to mega-Fas-L, 4 days) | cell expansion (ASCs [1]; Z-VAD-fmk only, 4 days) | Fas-L-induced apoptosis of ASCs (sub-G1) (ASCs [2]) | ASC counts compared to cells treated with Fas-L only (ASCs [1]; P2-4 ASCs, mega Fas-L plus inhibitor, 4 days) | cell quantities (ASCs [1]; P2-4 ASCs, mega Fas-L, Z-VAD-fmk plus inhibitor, 4 days) | Fas-L-dependent proliferation of ASCs (ASCs [1]; inhibitor added to Fas-L)
COC(=O)C[C@H](NC(=O)[C@H](C)NC(=O)[C@@H](NC(=O)OCc1ccccc1)C(C)C)C(=O)CF [Z-VAD-fmk] (Cbz-Val-Ala-Asp(OMe)-CH2F) | doubled cell yield | not affected; also recorded: without impacting; also recorded: minor to negligible effect | No such increased expansion | considerably attenuated; also recorded: near-complete inhibition | – | – | –
Cn1cnc2c(F)c(Nc3ccc(Br)cc3Cl)c(C(=O)NOCCO)cc21 [AZD6244] | – | – | – | – | reduced ASC counts | comparable to untreated control | could be inhibited

Reference: patent US20210137990A1, “METHODS FOR EXP ANDING ADIPOSE-DERIVED STEM CELLS” (CELLECT BIOTHERAPEUTICS LTD., priority 2018, published 2021)
